{
  "source": "patent US20030224416A1",
  "about": "“Schizophrenia related gene” (priority 2002, published 2003)",
  "key": {"Kv3.1 α-subunit mRNA": {"test_system": "Kv3.1 α-subunit mRNA", "assay": "Experiment 1: in situ hybridization of Kv3.1 α-subunit mRNA in brain, chronic PCP rat model of schizophrenia with antipsychotic co-treatment", "type": "in vivo", "conditions": "for Kv3.1 α-subunit mRNA expression: PCP-Veh (PCP 2.24 mg/kg i.p.)"}, "Kv3.1 mRNA": {"test_system": "Kv3.1 mRNA", "assay": "Experiment 2: in situ hybridisation of Kv3.1 mRNA in rat brain after chronic intermittent PCP (YRING model)", "type": "in vivo", "method": "(§1) In a second experiment using different method for in situ hybridisation, the effect of chronic PCP treatment on Kv3.1, Kv3.2 and Kv3.3 mRNA were examined. […] Animals were treated according to the YRING model (FIG. 1) and killed by cervical dislocation 72 hours after the last exposure to PCP. The brains were stored at −70° C. until required.\n(§2) 20 μm coronal sections were cut on a cryostat at −20° C. and collected onto poly-L-lysine coated slides. The sections were fixed, dehydrated and stored under ethanol at 4° C. until required. […] On the day of in situ hybridization, the sections from the chronic study were allowed to dry at room temperature then hybridized with the appropriate probe overnight at 42° C. The sections were then washed, dehydrated and air-dried before being exposed to x-ray film for 7-10 days.\n(§3) The quantification of mRNA expression was carried out using computer-based densitometry (MCID 5). Bilateral relative optical density measurements were taken from duplicate sections from each animal (n=8-10 per treatment group for the chronic study). The results were analyzed using individual t-tests for each brain region. Statistical significance was defined as p<0.05, again after correction for multiple comparisons using the sequential Bonferroni correction factor."}, "Kv3.2 mRNA": {"test_system": "Kv3.2 mRNA", "assay": "Experiment 2: in situ hybridisation of Kv3.2 mRNA in rat brain after chronic intermittent PCP (YRING model)", "type": "in vivo", "method": "as §1, §2, §3"}, "Kv3.3 mRNA": {"test_system": "Kv3.3 mRNA", "assay": "Experiment 2: in situ hybridisation of Kv3.3 mRNA in rat brain after chronic intermittent PCP (YRING model)", "type": "in vivo", "method": "as §1, §2, §3"}, "schizophrenia": {"test_system": "schizophrenia", "conditions": "patients; cited from earlier work"}, "[1]": {"conditions": "ventral part of the reticular thalamic nucleus"}},
  "data": [
    {"smiles": "c1ccc(C2(N3CCCCC3)CCCCC2)cc1", "note": "[PCP, phencyclidine]", "values": [
      {"measurement": "Kv3.1 α-subunit mRNA expression", "setting": "Kv3.1 α-subunit mRNA; ACg", "value": 15.01, "unit": "PSL/mm^2"},
      {"measurement": "Kv3.1 α-subunit mRNA expression", "setting": "Kv3.1 α-subunit mRNA; AcbC", "value": 8.48, "unit": "PSL/mm^2"},
      {"measurement": "Kv3.1 α-subunit mRNA expression", "setting": "Kv3.1 α-subunit mRNA; AcbS", "value": 10.62, "unit": "PSL/mm^2"},
      {"measurement": "Kv3.1 α-subunit mRNA expression", "setting": "Kv3.1 α-subunit mRNA; Au1", "value": 18.08, "unit": "PSL/mm^2"},
      {"measurement": "Kv3.1 α-subunit mRNA expression", "setting": "Kv3.1 α-subunit mRNA; CA1pd", "value": 15.90, "unit": "PSL/mm^2"},
      {"measurement": "Kv3.1 α-subunit mRNA expression", "setting": "Kv3.1 α-subunit mRNA; CA2pd", "value": 18.61, "unit": "PSL/mm^2"},
      {"measurement": "Kv3.1 α-subunit mRNA expression", "setting": "Kv3.1 α-subunit mRNA; CA3pd", "value": 32.94, "unit": "PSL/mm^2"},
      {"measurement": "Kv3.1 α-subunit mRNA expression", "setting": "Kv3.1 α-subunit mRNA; DGgd", "value": 38.63, "unit": "PSL/mm^2"},
      {"measurement": "Kv3.1 α-subunit mRNA expression", "setting": "Kv3.1 α-subunit mRNA; DLStr", "value": 5.87, "unit": "PSL/mm^2"},
      {"measurement": "Kv3.1 α-subunit mRNA expression", "setting": "Kv3.1 α-subunit mRNA; IL", "value": 12.28, "unit": "PSL/mm^2"},
      {"measurement": "Kv3.1 α-subunit mRNA expression", "setting": "Kv3.1 α-subunit mRNA; IO", "value": 16.48, "unit": "PSL/mm^2"},
      {"measurement": "Kv3.1 α-subunit mRNA expression", "setting": "Kv3.1 α-subunit mRNA; M1", "value": 15.88, "unit": "PSL/mm^2"},
      {"measurement": "Kv3.1 α-subunit mRNA expression", "setting": "Kv3.1 α-subunit mRNA; M2", "value": 14.38, "unit": "PSL/mm^2"},
      {"measurement": "Kv3.1 α-subunit mRNA expression", "setting": "Kv3.1 α-subunit mRNA; MG", "value": 26.93, "unit": "PSL/mm^2"},
      {"measurement": "Kv3.1 α-subunit mRNA expression", "setting": "Kv3.1 α-subunit mRNA; MM", "value": 24.34, "unit": "PSL/mm^2"},
      {"measurement": "Kv3.1 α-subunit mRNA expression", "setting": "Kv3.1 α-subunit mRNA; Pir", "value": 40.65, "unit": "PSL/mm^2"},
      {"measurement": "Kv3.1 α-subunit mRNA expression", "setting": "Kv3.1 α-subunit mRNA; PrL", "value": 9.83, "unit": "PSL/mm^2"},
      {"measurement": "Kv3.1 α-subunit mRNA expression", "setting": "Kv3.1 α-subunit mRNA; RSa", "value": 17.96, "unit": "PSL/mm^2"},
      {"measurement": "Kv3.1 α-subunit mRNA expression", "setting": "Kv3.1 α-subunit mRNA; RSg", "value": 20.38, "unit": "PSL/mm^2"},
      {"measurement": "Kv3.1 α-subunit mRNA expression", "setting": "Kv3.1 α-subunit mRNA; SN", "value": 12.82, "unit": "PSL/mm^2"},
      {"measurement": "Kv3.1 α-subunit mRNA expression", "setting": "Kv3.1 α-subunit mRNA; VMStr", "value": 6.15, "unit": "PSL/mm^2"},
      {"measurement": "Kv3.1 α-subunit mRNA expression", "setting": "Kv3.1 α-subunit mRNA; VO", "value": 19.85, "unit": "PSL/mm^2"},
      {"measurement": "Kv3.1 α-subunit mRNA expression", "setting": "Kv3.1 α-subunit mRNA; dRt", "value": 48.80, "unit": "PSL/mm^2"},
      {"measurement": "change in Kv3.1 α-subunit mRNA expression after chronic PCP treatment", "setting": "Kv3.1 α-subunit mRNA; dorsal part of the reticular nucleus of the thalamus (dRt)", "value": "−15", "unit": "%"},
      {"measurement": "change in Kv3.1 α-subunit mRNA expression after chronic PCP treatment", "setting": "Kv3.1 α-subunit mRNA; dorsolateral striatum (DLStr)", "value": "−16", "unit": "%"},
      {"measurement": "change in Kv3.1 α-subunit mRNA expression after chronic PCP treatment", "setting": "Kv3.1 α-subunit mRNA; prelimbic region of the prefrontal cortex (PrL)", "value": "−31", "unit": "%"},
      {"measurement": "Kv3.1 α-subunit mRNA expression", "setting": "Kv3.1 α-subunit mRNA; vRt", "value": 45.07, "unit": "PSL/mm^2"},
      {"measurement": "change in Kv3.1 mRNA expression after chronic intermittent PCP", "setting": "Kv3.1 mRNA; prelimbic cortex", "value": "−23", "unit": "%"},
      {"measurement": "Kv3.1 mRNA expression change after chronic intermittent PCP", "setting": "Kv3.1 mRNA; regions other than prelimbic cortex and vRt", "value": "No other changes were observed in any other regions"},
      {"measurement": "change in Kv3.1 mRNA expression after chronic intermittent PCP", "setting": "Kv3.1 mRNA; [1]", "value": "−19", "unit": "%"},
      {"measurement": "change in Kv3.2 mRNA expression after chronic intermittent PCP", "setting": "Kv3.2 mRNA; anteromedial thalamic nucleus", "value": "−9", "unit": "%"},
      {"measurement": "change in Kv3.2 mRNA expression after chronic intermittent PCP", "setting": "Kv3.2 mRNA; prelimbic cortex", "value": "+16%"},
      {"measurement": "change in Kv3.2 mRNA expression after chronic intermittent PCP", "setting": "Kv3.2 mRNA; primary motor cortex", "value": "+13%"},
      {"measurement": "Kv3.2 mRNA expression change after chronic intermittent PCP", "setting": "Kv3.2 mRNA; regions other than prelimbic cortex, primary motor cortex, anteromedial thalamic nucleus", "value": "No significant changes were observed"},
      {"measurement": "change in Kv3.3 mRNA expression after chronic intermittent PCP", "setting": "Kv3.3 mRNA; anterodorsal thalamic nucleus", "value": "+21%"},
      {"measurement": "change in Kv3.3 mRNA expression after chronic intermittent PCP", "setting": "Kv3.3 mRNA; prelimbic cortex", "value": "+18%"},
      {"measurement": "Kv3.3 mRNA expression change after chronic intermittent PCP", "setting": "Kv3.3 mRNA; regions other than prelimbic, ventral orbital cortex, AD, vRt", "value": "No other changes were observed in any other regions"},
      {"measurement": "change in Kv3.3 mRNA expression after chronic intermittent PCP", "setting": "Kv3.3 mRNA; ventral orbital cortex", "value": "+14%"},
      {"measurement": "change in Kv3.3 mRNA expression after chronic intermittent PCP", "setting": "Kv3.3 mRNA; [1]", "value": "+33%"}
    ]},
    {"smiles": "O=C(CCCN1CCC(O)(c2ccc(Cl)cc2)CC1)c1ccc(F)cc1", "note": "[haloperidol]", "values": [
      {"measurement": "action against the negative symptoms and cognitive dysfunction of schizophrenia", "setting": "schizophrenia", "value": "ineffective"},
      {"measurement": "attenuating the positive symptoms of schizophrenia", "setting": "schizophrenia", "value": "effective"}
    ]}
  ]
}
